Paper PMC10303271, “Synthesis and Receptor Binding Studies of α5 GABAAR Selective Novel Imidazodiazepines Targeted for Psychiatric and Cognitive Disorders” (Molecules, 2023)

Assays:
[1] = biological target: T1, 5-HT4 (Homo sapiens, UniProt Q13639); test: PDSP primary binding 5-HT4; conditions: 1.5 h; primary binding, 10,000 nM; last figure of the line = mean of the 4 before it; read-out: 5-HT4, PDSP raw data, mean
T1 construct: purchased NIMH Psychoactive Drug Screening Program (PDSP)
Method: (§1) To determine if any off-target receptor-binding effects are present, all the novel ligands were sent to the National Institute of Mental Health (NIMH), Psychoactive Drug Screening Program (PDSP). The ligands were screened over a panel of 47 receptors, ion channels, and transporters to determine any other possible interactions with […]. The hERG-binding was also determined. […] No binding of the test compounds to calcium channels was observed. […] It is necessary to screen the compounds for hERG-binding during the early process of drug discovery. The unintentional binding of many drugs to hERG can cause blockade of hERG K+ channels in the heart, which can cause many side effects including cardiac arrhythmias and sudden death. […] All of the α5 imidazodiazepines were tested for hERG-binding.
(§2) The NIMH PDSP assay protocol book [https://kidbdev.med.unc.edu/databases/PDSP%20Protocols%20II%202013-03-28.pdf accessed on 23 April 2023]. describes the protocols for primary and secondary radio-ligand binding assays. These assays were carried out in a final volume of 125 µL per well in the appropriate binding buffer.
(§3) The binding of a ligand to a receptor, ion channel, or transporter was determined in the […] of 10 µM of the appropriate reference compound. […] Plates were incubated in the dark for 90 min at rt, and the reactions were stopped by vacuum filtration onto 0.3% polyethyleneimine (PEI) soaked 96-well filter mats using a 96-well Filtermateharvester. This was followed by three washes with cold PBS buffer. Radioactivity was then counted on a Microbeta counter. Nonlinear regression was used to analyze the data with N = 6 replicates.

[2] = biological target: T2, hERG channels (Homo sapiens, UniProt Q12809); test: PDSP radioligand binding at hERG; conditions: primary binding, 10,000 nM; last figure of the line = mean of the 4 before it
T2 construct: purchased NIMH Psychoactive Drug Screening Program (PDSP)
T2 sequence (Q12809 whole entry): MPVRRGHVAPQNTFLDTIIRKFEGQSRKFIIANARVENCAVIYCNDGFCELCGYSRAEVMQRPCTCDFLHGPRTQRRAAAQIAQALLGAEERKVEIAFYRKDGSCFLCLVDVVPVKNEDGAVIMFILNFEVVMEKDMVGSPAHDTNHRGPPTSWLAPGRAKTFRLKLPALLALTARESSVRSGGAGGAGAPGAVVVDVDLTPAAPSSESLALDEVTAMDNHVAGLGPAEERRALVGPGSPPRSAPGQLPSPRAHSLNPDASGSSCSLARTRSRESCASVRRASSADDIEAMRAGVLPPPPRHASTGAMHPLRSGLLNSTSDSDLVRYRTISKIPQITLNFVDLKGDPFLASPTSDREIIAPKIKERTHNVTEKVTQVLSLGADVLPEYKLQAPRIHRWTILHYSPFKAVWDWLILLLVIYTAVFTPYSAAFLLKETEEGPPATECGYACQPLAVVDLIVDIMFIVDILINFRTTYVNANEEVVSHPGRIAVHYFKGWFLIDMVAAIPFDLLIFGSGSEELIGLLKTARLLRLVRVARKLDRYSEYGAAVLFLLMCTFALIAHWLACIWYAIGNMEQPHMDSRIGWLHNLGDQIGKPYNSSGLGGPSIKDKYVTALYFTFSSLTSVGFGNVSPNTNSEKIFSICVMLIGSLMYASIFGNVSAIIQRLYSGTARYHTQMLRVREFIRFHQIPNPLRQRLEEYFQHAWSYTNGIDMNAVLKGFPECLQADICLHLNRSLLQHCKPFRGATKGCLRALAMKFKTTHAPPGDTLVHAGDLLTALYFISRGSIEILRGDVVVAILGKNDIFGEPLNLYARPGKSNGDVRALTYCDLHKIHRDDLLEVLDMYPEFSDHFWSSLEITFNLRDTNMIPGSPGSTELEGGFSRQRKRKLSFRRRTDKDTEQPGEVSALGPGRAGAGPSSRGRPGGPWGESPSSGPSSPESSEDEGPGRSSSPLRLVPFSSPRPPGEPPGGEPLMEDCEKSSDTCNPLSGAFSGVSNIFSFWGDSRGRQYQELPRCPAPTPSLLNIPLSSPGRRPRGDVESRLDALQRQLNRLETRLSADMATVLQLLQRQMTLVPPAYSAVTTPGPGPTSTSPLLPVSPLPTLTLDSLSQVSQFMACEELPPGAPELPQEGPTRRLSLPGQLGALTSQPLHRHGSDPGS
Method: as §1, §2, §3

[3] = biological target: T3, Alpha3Beta4 (Rattus norvegicus, UniProt P04757+P12392); test: PDSP primary binding Alpha3Beta4; conditions: primary binding, 10,000 nM; last figure of the line = mean of the 4 before it; read-out: Alpha3Beta4, PDSP raw data, mean
T3 construct: purchased NIMH Psychoactive Drug Screening Program (PDSP)
T3 sequence (P04757 26-499): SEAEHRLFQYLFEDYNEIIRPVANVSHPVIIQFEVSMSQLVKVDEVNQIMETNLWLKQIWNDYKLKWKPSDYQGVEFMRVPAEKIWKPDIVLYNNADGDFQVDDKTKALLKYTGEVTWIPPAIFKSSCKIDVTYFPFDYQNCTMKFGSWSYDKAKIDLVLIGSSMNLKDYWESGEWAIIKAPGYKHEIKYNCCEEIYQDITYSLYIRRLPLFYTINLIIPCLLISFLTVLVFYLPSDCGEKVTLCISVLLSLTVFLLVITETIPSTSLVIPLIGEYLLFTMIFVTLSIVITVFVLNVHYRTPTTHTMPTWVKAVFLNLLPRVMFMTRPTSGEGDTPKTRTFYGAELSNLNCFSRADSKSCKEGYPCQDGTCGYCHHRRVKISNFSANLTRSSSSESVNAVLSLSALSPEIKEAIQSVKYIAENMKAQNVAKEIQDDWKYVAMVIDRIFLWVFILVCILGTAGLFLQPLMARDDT
T3 sequence (P12392 21-495): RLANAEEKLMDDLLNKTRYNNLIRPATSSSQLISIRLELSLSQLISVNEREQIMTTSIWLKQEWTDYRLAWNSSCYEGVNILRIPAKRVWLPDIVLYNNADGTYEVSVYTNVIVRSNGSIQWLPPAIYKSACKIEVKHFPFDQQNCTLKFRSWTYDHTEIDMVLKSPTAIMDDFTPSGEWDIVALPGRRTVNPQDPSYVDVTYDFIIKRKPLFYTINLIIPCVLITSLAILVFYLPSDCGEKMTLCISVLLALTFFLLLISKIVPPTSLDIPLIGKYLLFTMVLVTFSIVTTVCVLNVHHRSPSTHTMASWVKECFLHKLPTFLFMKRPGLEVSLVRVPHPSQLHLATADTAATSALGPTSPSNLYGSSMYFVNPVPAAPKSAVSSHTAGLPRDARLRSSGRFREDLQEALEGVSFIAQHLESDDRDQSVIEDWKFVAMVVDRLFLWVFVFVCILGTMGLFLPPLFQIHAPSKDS
Method: as §1, §2, §3

[4] = biological target: T4, Alpha4Beta2 (Rattus norvegicus, UniProt P09483+P12390); test: PDSP primary binding Alpha4Beta2; conditions: primary binding, 10,000 nM; last figure of the line = mean of the 4 before it; read-out: Alpha4Beta2, PDSP raw data, mean
T4 construct: purchased NIMH Psychoactive Drug Screening Program (PDSP)
T4 sequence (P09483 31-630): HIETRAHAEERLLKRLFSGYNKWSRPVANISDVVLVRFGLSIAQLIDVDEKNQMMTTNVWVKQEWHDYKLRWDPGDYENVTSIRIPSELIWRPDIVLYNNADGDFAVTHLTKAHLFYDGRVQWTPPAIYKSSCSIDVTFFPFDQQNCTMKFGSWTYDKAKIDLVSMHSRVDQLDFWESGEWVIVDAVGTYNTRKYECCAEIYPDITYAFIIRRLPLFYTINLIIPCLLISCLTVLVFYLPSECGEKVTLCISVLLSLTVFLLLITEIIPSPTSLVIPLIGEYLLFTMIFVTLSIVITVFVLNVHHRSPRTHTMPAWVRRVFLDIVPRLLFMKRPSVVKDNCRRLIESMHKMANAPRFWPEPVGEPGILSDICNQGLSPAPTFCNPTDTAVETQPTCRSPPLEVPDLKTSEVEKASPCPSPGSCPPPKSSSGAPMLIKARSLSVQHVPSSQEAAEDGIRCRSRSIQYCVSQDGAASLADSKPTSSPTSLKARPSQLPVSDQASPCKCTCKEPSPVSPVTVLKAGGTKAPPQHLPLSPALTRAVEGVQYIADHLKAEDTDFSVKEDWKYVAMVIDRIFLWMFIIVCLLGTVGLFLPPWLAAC
T4 sequence (P12390 25-500): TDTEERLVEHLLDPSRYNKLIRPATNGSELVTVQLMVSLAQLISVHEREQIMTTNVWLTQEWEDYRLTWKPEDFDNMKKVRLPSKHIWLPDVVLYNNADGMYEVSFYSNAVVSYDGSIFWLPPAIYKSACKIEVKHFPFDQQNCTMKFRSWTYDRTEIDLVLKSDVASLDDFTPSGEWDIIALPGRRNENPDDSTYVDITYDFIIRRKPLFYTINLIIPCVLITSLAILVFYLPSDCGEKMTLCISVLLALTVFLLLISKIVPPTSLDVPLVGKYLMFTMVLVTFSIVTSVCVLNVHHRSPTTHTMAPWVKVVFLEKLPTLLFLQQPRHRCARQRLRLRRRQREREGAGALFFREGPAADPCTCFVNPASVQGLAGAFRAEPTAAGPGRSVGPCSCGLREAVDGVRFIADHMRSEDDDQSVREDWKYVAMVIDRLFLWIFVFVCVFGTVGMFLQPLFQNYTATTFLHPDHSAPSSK
Method: as §1, §2, §3

[5] = biological target: T5, Beta2 (Homo sapiens, UniProt P07550); test: PDSP primary binding Beta2; conditions: 1.5 h; primary binding, 10,000 nM; last figure of the line = mean of the 4 before it; read-out: Beta2, PDSP raw data, mean
T5 construct: purchased NIMH Psychoactive Drug Screening Program (PDSP)
Method: as §1, §2, §3

[6] = biological target: T6, Alpha1D (Homo sapiens, UniProt P25100); test: PDSP primary binding Alpha1D; conditions: 1.5 h; primary binding, 10,000 nM; last figure of the line = mean of the 4 before it; read-out: Alpha1D, PDSP raw data, mean
T6 construct: purchased NIMH Psychoactive Drug Screening Program (PDSP)
T6 sequence (P25100 1-572): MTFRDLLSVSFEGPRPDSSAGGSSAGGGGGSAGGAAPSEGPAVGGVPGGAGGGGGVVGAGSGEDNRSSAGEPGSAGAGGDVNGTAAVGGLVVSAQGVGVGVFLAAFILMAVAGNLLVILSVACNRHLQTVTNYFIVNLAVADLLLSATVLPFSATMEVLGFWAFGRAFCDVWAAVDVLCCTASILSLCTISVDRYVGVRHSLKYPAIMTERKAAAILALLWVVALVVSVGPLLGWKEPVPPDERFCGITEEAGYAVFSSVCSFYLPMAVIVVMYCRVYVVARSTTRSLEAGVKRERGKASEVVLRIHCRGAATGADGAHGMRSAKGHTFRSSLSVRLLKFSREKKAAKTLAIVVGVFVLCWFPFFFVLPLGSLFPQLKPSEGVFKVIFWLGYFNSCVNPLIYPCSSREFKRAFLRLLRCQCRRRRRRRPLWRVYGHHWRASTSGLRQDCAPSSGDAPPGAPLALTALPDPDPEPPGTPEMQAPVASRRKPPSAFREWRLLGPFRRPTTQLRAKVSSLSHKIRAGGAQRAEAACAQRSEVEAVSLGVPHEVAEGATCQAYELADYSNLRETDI
Method: as §1, §2, §3

[7] = biological target: T7, NET (Homo sapiens, UniProt P23975); test: PDSP primary binding NET; conditions: primary binding, 10,000 nM; last figure of the line = mean of the 4 before it; read-out: NET, PDSP raw data, mean
T7 construct: purchased NIMH Psychoactive Drug Screening Program (PDSP)
Method: as §1, §2, §3

[8] = biological target: T8, Alpha2Beta2 (Rattus norvegicus, UniProt P12389+P12390); test: PDSP primary binding Alpha2Beta2; conditions: primary binding, 10,000 nM; last figure of the line = mean of the 4 before it; read-out: Alpha2Beta2, PDSP raw data, mean
T8 construct: purchased NIMH Psychoactive Drug Screening Program (PDSP)
T8 sequence (P12389 28-511): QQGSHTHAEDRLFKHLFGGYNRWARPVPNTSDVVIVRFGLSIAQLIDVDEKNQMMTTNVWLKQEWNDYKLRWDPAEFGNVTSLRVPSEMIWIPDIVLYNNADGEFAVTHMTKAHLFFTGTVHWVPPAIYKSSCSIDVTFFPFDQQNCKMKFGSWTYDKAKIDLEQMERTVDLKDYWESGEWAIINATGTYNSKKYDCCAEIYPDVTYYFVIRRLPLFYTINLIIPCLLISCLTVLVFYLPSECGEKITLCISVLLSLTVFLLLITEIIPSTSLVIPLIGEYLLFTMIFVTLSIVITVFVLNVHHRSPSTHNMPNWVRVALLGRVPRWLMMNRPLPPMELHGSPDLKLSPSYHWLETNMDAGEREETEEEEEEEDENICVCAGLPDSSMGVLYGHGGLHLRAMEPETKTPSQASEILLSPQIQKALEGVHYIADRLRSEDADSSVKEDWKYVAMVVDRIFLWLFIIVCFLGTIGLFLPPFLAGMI
T8 sequence (P12390 25-500): as the sequence (P12390 25-500) above
Method: as §1, §2, §3

[9] = biological target: T9, M3D (Homo sapiens, UniProt P20309, A239G/Y149C); test: PDSP primary binding M3D; conditions: primary binding, 10,000 nM; last figure of the line = mean of the 4 before it; read-out: M3D, PDSP raw data, mean
T9 construct: purchased NIMH Psychoactive Drug Screening Program (PDSP)
T9 sequence (P20309 whole entry Y149C/A239G): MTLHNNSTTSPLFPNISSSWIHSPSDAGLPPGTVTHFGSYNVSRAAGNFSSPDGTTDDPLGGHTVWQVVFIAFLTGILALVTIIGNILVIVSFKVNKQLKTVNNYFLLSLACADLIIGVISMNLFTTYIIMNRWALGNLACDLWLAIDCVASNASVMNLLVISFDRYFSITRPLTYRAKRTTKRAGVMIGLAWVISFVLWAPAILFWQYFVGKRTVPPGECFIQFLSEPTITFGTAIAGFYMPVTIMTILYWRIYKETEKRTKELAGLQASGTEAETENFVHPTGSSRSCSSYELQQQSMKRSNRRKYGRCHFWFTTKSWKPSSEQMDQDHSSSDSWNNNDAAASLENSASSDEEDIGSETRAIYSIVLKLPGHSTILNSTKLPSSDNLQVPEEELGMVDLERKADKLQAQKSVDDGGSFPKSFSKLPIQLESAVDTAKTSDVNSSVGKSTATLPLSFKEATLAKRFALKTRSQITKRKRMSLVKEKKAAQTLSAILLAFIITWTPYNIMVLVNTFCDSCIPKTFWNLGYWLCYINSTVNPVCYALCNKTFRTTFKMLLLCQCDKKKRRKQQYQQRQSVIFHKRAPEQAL
Method: as §1, §2, §3

[10] = test system: NR2B; test: PDSP primary binding NR2B; conditions: primary binding, 10,000 nM; last figure of the line = mean of the 4 before it
Method: as §1, §2, §3

[11] = biological target: T10, Alpha1A (Homo sapiens, UniProt P35348); test: PDSP primary binding Alpha1A; conditions: 1.5 h; primary binding, 10,000 nM; last figure of the line = mean of the 4 before it; read-out: Alpha1A, PDSP raw data, mean
T10 construct: purchased NIMH Psychoactive Drug Screening Program (PDSP)
T10 sequence (P35348 1-466): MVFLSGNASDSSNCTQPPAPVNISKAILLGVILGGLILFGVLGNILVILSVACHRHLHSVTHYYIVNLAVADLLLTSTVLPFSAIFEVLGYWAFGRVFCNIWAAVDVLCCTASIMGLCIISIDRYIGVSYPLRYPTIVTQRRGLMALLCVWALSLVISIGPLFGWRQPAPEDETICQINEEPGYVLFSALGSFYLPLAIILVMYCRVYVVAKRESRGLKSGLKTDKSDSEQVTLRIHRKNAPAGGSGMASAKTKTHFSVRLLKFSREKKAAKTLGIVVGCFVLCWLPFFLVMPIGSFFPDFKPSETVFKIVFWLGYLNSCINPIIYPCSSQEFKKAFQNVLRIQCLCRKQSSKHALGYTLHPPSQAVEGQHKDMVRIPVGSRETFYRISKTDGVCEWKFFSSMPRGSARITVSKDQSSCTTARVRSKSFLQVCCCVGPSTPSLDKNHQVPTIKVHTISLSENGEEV
Method: as §1, §2, §3

[12] = biological target: T11, H2 (Homo sapiens, UniProt P25021); test: PDSP primary binding H2; conditions: primary binding, 10,000 nM; last figure of the line = mean of the 4 before it; read-out: H2, PDSP raw data, mean
T11 construct: purchased NIMH Psychoactive Drug Screening Program (PDSP)
Method: as §1, §2, §3

T1 sequence (Q13639 whole entry): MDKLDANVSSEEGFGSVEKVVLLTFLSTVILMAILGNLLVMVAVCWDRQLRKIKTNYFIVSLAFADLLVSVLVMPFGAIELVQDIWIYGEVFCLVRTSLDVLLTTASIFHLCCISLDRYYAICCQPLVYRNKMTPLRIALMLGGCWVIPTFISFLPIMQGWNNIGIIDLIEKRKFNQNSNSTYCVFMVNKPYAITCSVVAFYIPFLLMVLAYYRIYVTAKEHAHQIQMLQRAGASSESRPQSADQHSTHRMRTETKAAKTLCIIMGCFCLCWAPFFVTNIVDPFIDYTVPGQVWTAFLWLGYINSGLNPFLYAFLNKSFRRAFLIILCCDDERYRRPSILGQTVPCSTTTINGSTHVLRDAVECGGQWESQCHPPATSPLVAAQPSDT

Row | Structure (SMILES) | inhibition at 10 µM [1] | HERG, PDSP raw data, mean [2] | inhibition at 10 µM [3] | inhibition at 10 µM [4] | inhibition at 10 µM [5] | inhibition at 10 µM [6] | inhibition at 10 µM [7] | inhibition at 10 µM [8] | inhibition at 10 µM [9] | NR2B, PDSP raw data, mean [10] | inhibition at 10 µM [11] | inhibition at 10 µM [12]
1 | C#Cc1ccc2c(c1)C(c1ccccc1F)=N[C@H](C)c1c(C(=S)N(C)C)ncn1-2 [Compound 33, (R)-8-Ethynyl-6-(2′-fluorophenyl)-N,N,4-trimethyl-4H-benzo[f]imidazo[1,5-a][1,4]diazepine-3-carbothioamide] | -14.4% | -0.48% | -0.77% | -1.65% | -0.87% | 3.57% | -6% | -5.95% | 4.84% | 3.79% | -4.47% | -1.42%
2 | C#Cc1ccc2c(c1)C(c1ccccn1)=N[C@@H](C)c1c(C(=O)NC)ncn1-2 [Compound 23, (S)-8-Ethynyl-N,4-dimethyl-6-(pyridin-2′-yl)-4H-benzo[f]imidazo[1,5-a][1,4]diazepine-3-carboxamide] | -1.06% | -4.24% | 1.99% | -4.27% | -5.89% | -6.54% | 2.62% | -3.67% | 9.08% | -22.69% | -5.28% | -23.3%
3 | C[C@H]1N=C(c2ccccc2F)c2cc(-c3ccccc3)ccc2-n2cnc(C(=O)N(C)C)c21 [Compound 5, (R)-6-(2′-Fluorophenyl)-N,N,4-trimethyl-8-phenyl-4H-benzo[f]imidazo[1,5-a][1,4]diazepine-3-carboxamide] | -14.4% | -0.48% | -0.77% | -1.65% | -0.87% | 3.57% | -6% | -5.95% | 4.84% | 3.79% | -4.47% | -1.42%
4 | C#Cc1ccc2c(c1)C(c1ccccn1)=N[C@@H](C)c1c(C(=O)N(C)C)ncn1-2 [Compound 31, (S)-8-Ethynyl-N,N,4-trimethyl-6-(pyridin-2′-yl)-4H-benzo[f]imidazo[1,5-a][1,4]diazepine-3-carboxamide] | -0.81% | 0.95% | -0.5% | -0.84% | -0.05% | -6.09% | 10.2% | -2.25% | 6.59% | -10.18% | -10.5% | -12.1%
